Tests used:
Test in all cases: relative viability (nuclei count vs DMSO), 5 days (fraction); higher = more cells survive
Avagacestat + Linsitinib = compound: NC(=O)[C@@H](CCC(F)(F)F)N(Cc1ccc(-c2ncon2)cc1F)S(=O)(=O)c1ccc(Cl)cc1 [Avagacestat] + C[C@]1(O)C[C@@H](c2nc(-c3ccc4ccc(-c5ccccc5)nc4c3)c3c(N)nccn32)C1 [Linsitinib] (partner 1 µM)
How it was run: (§1)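 Each reported value is a median over duplicate plates. It expresses relative viability: treated-well nuclei count divided by vehicle-well nuclei count. Lung cancer cell lines in 1536-well plates were dosed by pin tool a day after seeding, alone with one drug or with a fixed anchor-drug dose plus five library-drug doses (not always all listed) in √10 steps, and nuclei were counted after 5 days.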

Avagacestat + Pictilisib = compound: NC(=O)[C@@H](CCC(F)(F)F)N(Cc1ccc(-c2ncon2)cc1F)S(=O)(=O)c1ccc(Cl)cc1 [Avagacestat] + CS(=O)(=O)N1CCN(Cc2cc3nc(-c4cccc5[nH]ncc45)nc(N4CCOCC4)c3s2)CC1 [Pictilisib] (partner 1 µM)
How it was run: as §1

Avagacestat + Alpelisib = compound: NC(=O)[C@@H](CCC(F)(F)F)N(Cc1ccc(-c2ncon2)cc1F)S(=O)(=O)c1ccc(Cl)cc1 [Avagacestat] + Cc1nc(NC(=O)N2CCC[C@H]2C(N)=O)sc1-c1ccnc(C(C)(C)C(F)(F)F)c1 [Alpelisib] (partner 2 µM)
How it was run: as §1

Avagacestat + Decitabine = compound: NC(=O)[C@@H](CCC(F)(F)F)N(Cc1ccc(-c2ncon2)cc1F)S(=O)(=O)c1ccc(Cl)cc1 [Avagacestat] + Nc1ncn([C@H]2C[C@H](O)[C@@H](CO)O2)c(=O)n1 [Decitabine] (partner 2 µM)
How it was run: as §1

| Cell Line | relative viability (Avagacestat + Linsitinib; first compound 0.08 µM) | relative viability (Avagacestat + Linsitinib; first compound 0.253 µM) | relative viability (Avagacestat + Linsitinib; first compound 0.8 µM) | relative viability (Avagacestat + Linsitinib; first compound 2.53 µM) | relative viability (Avagacestat + Linsitinib; first compound 8 µM) | relative viability (Avagacestat + Pictilisib; first compound 0.08 µM) | relative viability (Avagacestat + Pictilisib; first compound 0.253 µM) | relative viability (Avagacestat + Pictilisib; first compound 0.8 µM) | relative viability (Avagacestat + Pictilisib; first compound 2.53 µM) | relative viability (Avagacestat + Pictilisib; first compound 8 µM) | relative viability (Avagacestat + Alpelisib; first compound 0.08 µM) | relative viability (Avagacestat + Alpelisib; first compound 0.253 µM) | relative viability (Avagacestat + Alpelisib; first compound 0.8 µM) | relative viability (Avagacestat + Alpelisib; first compound 2.53 µM) | relative viability (Avagacestat + Alpelisib; first compound 8 µM) | relative viability (Avagacestat + Decitabine; first compound 0.08 µM) | relative viability (Avagacestat + Decitabine; first compound 0.253 µM) | relative viability (Avagacestat + Decitabine; first compound 0.8 µM) | relative viability (Avagacestat + Decitabine; first compound 2.53 µM) | relative viability (Avagacestat + Decitabine; first compound 8 µM) |
| --- | --- | --- | --- | --- | --- | --- | --- | --- | --- | --- | --- | --- | --- | --- | --- | --- | --- | --- | --- | --- |
| NCI-H2087 | 1.2 | 1.2 | 1.03 | 1.2 | 1.02 | 0.905 | 1.04 | 1.27 | 0.896 | 0.955 | 1.12 | 1.26 | 1.28 | 1.18 | 1.03 | 0.3 | 0.279 | 0.374 | 0.25 | 0.257 |
| RERF-LC-KJ | 0.896 | 0.981 | 0.92 | 0.848 | 0.761 | 0.526 | 0.599 | 0.549 | 0.464 | 0.617 | 0.813 | 0.823 | 0.831 | 0.831 | 0.703 | 0.686 | 0.705 | 0.622 | 0.686 | 0.645 |
| NCI-H2342 |  |  |  |  |  |  |  |  |  |  |  |  |  |  |  | 0.738 | 0.686 | 0.706 | 0.695 | 0.742 |
| A-427 | 1.11 | 1.24 | 1.16 | 1.15 | 1.22 | 0.72 | 0.832 | 0.745 | 0.763 | 0.817 | 1.14 | 1.2 | 1.1 | 1.07 | 1.14 | 0.549 | 0.583 | 0.565 | 0.619 | 0.601 |
| H3255 | 1.02 | 1.17 | 0.975 | 0.899 | 0.898 | 0.488 | 0.544 | 0.494 | 0.481 | 0.474 | 0.759 | 0.736 | 0.836 | 0.678 | 0.741 | 0.619 | 0.731 | 0.678 | 0.591 | 0.542 |
| HCC-78 | 0.568 | 0.54 | 0.706 | 0.396 | 0.406 | 0.179 | 0.222 | 0.244 | 0.192 | 0.235 | 0.299 | 0.358 | 0.347 | 0.269 | 0.321 | 0.675 | 0.726 | 0.75 | 0.683 | 0.669 |
| NCI-H1755 | 1.05 | 1.05 | 1.03 | 0.991 | 0.951 | 0.487 | 0.445 | 0.445 | 0.428 | 0.367 | 1.24 | 1.1 | 1.05 | 0.939 | 0.777 | 0.732 | 0.665 | 0.755 | 0.718 | 0.72 |
| NCI-H23 | 0.759 | 0.636 | 0.675 | 0.548 | 0.456 | 0.523 | 0.453 | 0.472 | 0.475 | 0.555 | 0.912 | 0.766 | 0.768 | 0.683 | 0.688 | 0.416 | 0.316 | 0.308 | 0.328 | 0.272 |
| ABC-1 | 0.979 | 1.06 | 0.866 | 0.786 | 0.737 | 1 | 0.753 | 0.861 | 0.679 | 0.711 | 1.11 | 1.02 | 1.26 | 1.11 | 1.29 | 1.12 | 1.26 | 1.07 | 1.17 | 1.24 |

Reference: the supplement of paper PMC10307832
